Key:
SARS-CoV-1 = format: cell-based
SARS-CoV-2 = format: cell-based
MERS = format: cell-based

## CNCc1ccc(-c2cc(-c3nc(-c4ccc(S(=O)(=O)C(C)C)cc4)cnc3N)on2)cc1 [Compound 1, 3-[3-(4-Methylaminomethyl-phenyl)-isoxazol-5-yl]-5-[4-(propane-2-sulfonyl)-phenyl]-pyrazin-2-ylamine]
SARS-CoV-1
  inhibition of virus replication: dose dependent inhibition
SARS-CoV-2
  inhibition in cells infected by SARS-CoV-2 compared with remdesivir: comparable with that of the antiviral reference substance remdesivir
  inhibition of virus replication: dose dependent inhibition
MERS
  inhibition of virus replication: dose dependent inhibition
Calu-3
  cell viability: remains nearly unaffected

From patent publication US20230301991A1, “COMPOUNDS FOR THE TREATMENT OF VIRAL INFECTIONS” (priority 2020, published 2023)
